# Measurements as given in paper PMC4433340 (PLoS Neglected Tropical Diseases, 2015).
# Read-outs that look alike come from different tables or passages of the source.
# What was measured:
# T. cruzi epimastigotes = conditions: at concentrations in the millimolar range; cited from earlier work
# [1] = system: HL-60 leukocyte adhesion to T. cruzi-infected endothelial cells; assay: Leukocyte-endothelium cell adhesion assay; assay type: cell-based, human; conditions: 5 μM simvastatin or 20 μM benznidazole for 24 hours before 16 hours infection; HL-60 leukocytes
# Method: The leukocyte adhesion assay was performed with the Cytoselect Leukocyte-Endothelium Adhesion Assay kit (CBA-210; Cell Biolabs, USA). Briefly, EA.hy926 cells were cultured in 96-well plates that had been previously coated with gelatin for 1 hour. […] LeukoTracker-labeled leukocytes (HL60 cells) were added to the monolayer and incubated for 90 min. After thorough washing, cells were lysed, and fluorescence was measured at 480 nm excitation/520 nm emission. The percentage of adherent leukocytes was calculated: % adherence = adherent signal/total signal. All of the determinations were performed in triplicate using a fluorescence microplate reader (Varioskan, Thermo Scientific).
# [2] = system: intracellular T. cruzi amastigotes in EA.hy926 cells; assay: DAPI staining and intracellular amastigote quantification; assay type: cell-based, Trypanosoma cruzi; conditions: 5 μM simvastatin or 20 μM benznidazole for 24 hours before infection; counted after 72 hours
# Method: 2x10^4 EA.hy926 cells/slide were seeded in Lab-Tek II Chamber Slides for 12 h. […] Then, the cells were washed and fixed in cold methanol (70%) overnight. The fixed cells were then washed, and 1 mL PBS (pH 7.4) was added. DNA was stained with DAPI (NucBlue; Molecular Probes, USA) following the manufacturer's instructions. The cells were photographed using a Nikon Eclipse 400 fluorescence microscope using 358 nm (excitation) and 461 nm (emission) wavelengths. In total, ten pictures were obtained per well, and each picture was counted using MATLAB software.
# In Fig 3, total E-selectin (Fig 3A), ICAM-1 (Fig 3B) and VCAM-1 (Fig 3C) protein expression analyses are shown. […] To evaluate parasite load, DAPI-stained cells were photographed (20.12 ± 3.8 cells per photograph, 20 photographs per experimental condition; infected to uninfected cells ratio of 1:5) and the number of intracellular amastigotes was determined by manual count.
# Trypomastigotes Dm28c = assay: Parasite viability by MTT reduction assay, trypomastigotes; assay type: cell-based; conditions: Trypanosoma cruzi, read-out: IC50, cellular viability, Trypomastigotes Dm28c
# Method: T. cruzi trypomastigotes (Dm28c clone) from our collection, were obtained from infected EA.hy926 cells. Cells were exposed to trypomastigotes (Dm28c clone) at a multiplicity of infection (MOI) of 5. Trypomastigotes were allowed to infect cells for 24 hours, after which the supernatant was removed and fresh medium was added. Trypomastigotes were released from EA.hy926 cells after four days of infection. The parasites were harvested and collected for viability assays and further cell infections.
# The effect of the drug on all cells and parasite viability was evaluated through the tetrazolium salt (MTT, Sigma-Aldrich) reduction assay as described. Drugs at concentrations ranging from 1 to 20 μM, dissolved in DMSO at a 0.025% v/v final concentration, were applied to 2.5x10^5 cells/mL or 10^6 parasite/mL culture medium. Cultures were incubated for 24 hours before adding MTT for 4 hours. The plates were incubated overnight with 10% SDS w/v in 0.01 M HCl at 37°C, and optical density (OD) was determined using a microplate reader (Labsystems Multiskan MS, Finland) at 570 nm. Under these conditions, the OD was directly proportional to viable cell number per well. All of the experiments were performed at least three times, and the data are shown as the means and their standard deviations from triplicate cultures.
# [3] = system: 15-epi-lipoxin A4 production by T. cruzi-infected EA.hy926 cells; assay: 15-epi-lipoxin A4 quantification by DSA-TOF MS in culture supernatants; assay type: cell-based, human; conditions: 5 μM simvastatin
# Method: 8x10^5 EA.hy926 cells/well were cultured in 6-well plates (IMDM 10% SFB). […] 15-epi-LXA4 determination was performed by:
# • ELISA assay: the supernatant from the cell cultures was assayed using a 15-epi-LXA4 BioAssay ELISA Kit (USBiological, USA) following manufacturer’s instructions. • AxION DSA—TOF MS determination: To determine 15-epi-lipoxin A4 levels in EAhy926 cell culture supernatants, an AxION Direct Sample Analysis (DSA) that was integrated with an AxION 2 time-of-flight (TOF) mass spectrometer (PerkinElmer, Shelton, CT, USA) was employed. For extraction, all of the samples were loaded onto a solid phase extraction and eluted with 1 mL chloroform three times successively. Then, the samples were transferred into a clean tube, and the chloroform in the samples was evaporated in a water bath. Finally, the samples were resuspended in 100 μL ethanol, and 10 μL were pipetted onto a stainless mesh. For the calibration curve, 15-epi-lipoxin A4 (cat#90415, Cayman Chemical, USA) was diluted in PBS to achieve different final concentrations (see S1 Fig). From each tube, 10 μL was pipetted onto a stainless mesh, and DSA—TOF determination was performed. The AxION DSA conditions were as follows: 5 μA corona current, 250°C heater temperature, 80 psi auxiliary gas (N2) pressure, 4 L/min drying gas (N2) flow, and 25°C drying gas (N2) temperature. […] Mass spectra were acquired with a mass range of 100–1000 m/z and an acquisition rate of 2 spectra/sec. To maintain mass accuracy, […] lock mass ions were used (m/z 119.0400, m/z 556.0000 and m/z 805.9900). All of the samples were analyzed for only 10 sec. The standards used were 15-epi-lipoxin A4 (cat#90415, Cayman Chemical,) and 5(S),6(R)-Lipoxin A4 methyl ester (cat#10033, Cayman Chemical) as an internal standard. These were confirmed in seconds by accurate mass and isotopic distribution of parent and fragment ions using DSA/TOF and AxION software, and compound identification was performed using the standards. All of the samples were analyzed in triplicate.
# [4] = system: NF-κB p65 in T. cruzi-infected EA.hy926 cells; assay: Nuclear p65 localization by confocal microscopy; assay type: cell-based, human; conditions: 5 μM simvastatin or 20 μM benznidazole before T. cruzi 1 hour
# Method: 2x10^4 EA.hy926 cells were seeded in Lab-Tek II Chamber Slides^TM for 12 hours. Cells were fixed in 3.7% formaldehyde–0.1 M phosphate buffer (pH 7.3) for 10 min. They were then washed with cytoskeletal buffer followed by permeabilization for 5 min with Triton-X100 0.5%. Cells were blocked with 3% bovine serum albumin for 1 hour. […] The samples were washed with PBS and incubated with anti-rabbit IgG conjugated with fluorescein (1:100) from Sigma-Aldrich for 1 hour. Finally, nuclei were stained with DAPI for 5 minutes and mounted in Dako fluorescence mounting media. The cells were photographed and ten pictures per well were obtained; images were analyzed using ImageJ software (ImageJ 1.47v).
SMILES,Epimastigote proliferation (T. cruzi epimastigotes),Leukocyte adhesiveness to infected endothelial cells [1],Intracellular T. cruzi (amastigote) load [2],"IC50 (Trypomastigotes Dm28c; MTT assay, 24 hours incubation, mean ± SD, n = 3) [µM]",15-epi-lipoxin A4 concentration (Mean ± SD) ([3]; 3 hours) [ng/mL],15-epi-lipoxin A4 concentration (Mean ± SD) ([3]; 6 hours) [ng/mL],15-epi-lipoxin A4 concentration (Mean ± SD) ([3]; 12 hours) [ng/mL],15-epi-lipoxin A4 concentration (Mean ± SD) ([3]; 24 hours) [ng/mL],IC50 (Trypomastigotes Dm28c; 24 h) [µM],Nuclear p65 localization [4]
CCC(C)(C)C(=O)O[C@H]1C[C@@H](C)C=C2C=C[C@H](C)[C@H](CC[C@@H]3C[C@@H](O)CC(=O)O3)[C@H]21 [Simvastatin],decreased epimastigote proliferation,adhesiveness decreased,not affected,4.2 ± 1.06,1.58 ± 0.21,3.58 ± 1.22,37.28 ± 11.23,326 ± 34.25,–,–
O=C(Cn1ccnc1[N+](=O)[O-])NCc1ccccc1 [Benznidazole],–,adhesiveness decreased,not affected,–,–,–,–,–,20.8 ± 1.35,decreased nuclear p65 localization
